Measured values as given in PMC9233675, “Ru(II) photocages enable precise control over enzyme activity with red light” (Nature Communications, 2022).
Several values for one entry are separate records, joined by “and”; a condition that tells them apart may be missing. Identical values can stand only once.

Assays:
[1] = Stability of compounds in mouse liver microsomes
[2] = Stability of compounds in rat liver microsomes
[3] = Stability of compounds in human liver microsomes; settings: for Remaining, % (T=60min): human, liver microsomes
[4] = Irradiation-induced 1O2 production (Singlet Oxygen Sensor Green assay); format: physicochemical; settings: sheet S27; triplicate columns; DMSO control about 0.9
Text: Some Ru(II) complexes can generate singlet oxygen when photoexcited, a feature that has been applied to the selective photoinactivation of proteins. In this approach, the Ru(II) system is conjugated to a peptide that is a specific ligand for the protein target; binding of the peptide to the protein ensures close proximity of the Ru(II) center and thus, upon photoexcitation, the generation of a high local concentration of singlet oxygen. […] As very little of this reactive oxygen species was generated, inactivation of the CYP enzymes by this process appears unlikely.
Supplementary Figure 27. Determination of irradiation-induced 1O2 production with 660 nm light (1 hr = 58.7 J/cm2)
using the Singlet Oxygen Sensor Green assay. […]

## C[C@]12CC[C@H]3[C@@H](CCC4=CC(=O)CC[C@@]43C)[C@@H]1CC[C@@H]2O [Testosterone, reference compound]
[1]; mouse liver microsomes, no co-factor (no NADPH)
  Remaining, % (NCF=60min): 91.3%
[1]; mouse, liver microsomes
  Remaining, % (T=60min): 2.3%
[2]; rat liver microsomes, no co-factor (no NADPH)
  Remaining, % (NCF=60min): 86.5%
[2]; rat, liver microsomes
  Remaining, % (T=60min): 0.8%
[3]; human liver microsomes, no co-factor (no NADPH)
  Remaining, % (NCF=60min): 82.5%
[3]
  Remaining, % (T=60min): 3.6%

## O=C(O)Cc1ccccc1Nc1c(Cl)cccc1Cl [Diclofenac, reference compound]
[3]
  Remaining, % (T=60min): 0.0%

## CCCCCCOC(C)c1c(C)c2cc3nc(c4c5[nH]c(cc6nc(cc1[nH]2)C(C)=C6CC)c(C)c5C(=O)C4)[C@@H](CCC(=O)O)[C@@H]3C (stereo partly drawn) [HPPH, reference compound]
[4]
  irradiation-induced 1O2 production (Singlet Oxygen Sensor Green signal, relative): 4.8266 and 4.787 and 4.883

## [Ru+2].c1ccc(-c2ccccn2)nc1.c1ccc(-c2ccccn2)nc1.c1ccc(-c2ccccn2)nc1 [Ru(bpy)3, reference compound]
[4]
  irradiation-induced 1O2 production (Singlet Oxygen Sensor Green signal, relative): 4.994 and 4.917 and 5.133
